We go through 2 molecules from US20130197032A1, “[…] COMPOUNDS FOR THE TREATMENT OF NEUROLOGICAL AND […] DISORDERS” (A. CARLSSON RESEARCH AB, priority 2010, published 2013).

Assay [1] addresses T1, human 5-HT2C(vgv) receptor (Homo sapiens, UniProt P28335, I156V/I160V/N158G).
T1 construct: expressed in transfected cells; host or cells: NIH/3T3
T1 sequence (P28335 33-458 I156V/N158G/I160V): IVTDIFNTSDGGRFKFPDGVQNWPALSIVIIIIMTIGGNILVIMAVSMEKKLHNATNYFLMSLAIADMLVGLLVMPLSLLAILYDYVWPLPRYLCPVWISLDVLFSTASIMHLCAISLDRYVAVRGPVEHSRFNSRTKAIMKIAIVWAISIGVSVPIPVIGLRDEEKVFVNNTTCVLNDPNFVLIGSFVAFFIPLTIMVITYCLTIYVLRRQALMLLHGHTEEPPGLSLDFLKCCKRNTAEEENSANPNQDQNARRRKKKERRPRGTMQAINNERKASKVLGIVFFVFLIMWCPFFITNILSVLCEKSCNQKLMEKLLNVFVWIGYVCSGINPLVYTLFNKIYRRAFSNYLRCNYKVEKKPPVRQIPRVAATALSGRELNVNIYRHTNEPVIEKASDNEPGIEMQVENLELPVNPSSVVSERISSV
Briefly: R-SAT assay 5-HT2C. The class given is cell-based. The conditions noted are these: Table 3, 5-HT2C; for EC50: negative logarithm of EC50 in molar; for Eff (%): percent response of reference 5-CT.

Assay [2] deals with T2, human 5-HT1E receptor (Homo sapiens, UniProt P28566).
T2 construct: expressed in transfected cells; host or cells: NIH/3T3
T2 sequence (P28566 whole entry): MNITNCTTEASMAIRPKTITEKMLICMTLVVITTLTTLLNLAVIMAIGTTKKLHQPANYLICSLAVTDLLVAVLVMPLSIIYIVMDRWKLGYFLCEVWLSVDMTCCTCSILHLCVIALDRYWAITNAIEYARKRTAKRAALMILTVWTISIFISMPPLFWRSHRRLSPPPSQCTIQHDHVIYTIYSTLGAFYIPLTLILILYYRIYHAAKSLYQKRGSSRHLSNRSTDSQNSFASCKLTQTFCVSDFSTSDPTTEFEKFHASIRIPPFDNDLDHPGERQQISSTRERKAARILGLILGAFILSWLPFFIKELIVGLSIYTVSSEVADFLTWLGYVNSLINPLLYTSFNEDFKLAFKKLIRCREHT
Put plainly: R-SAT assay 5-HT1E. The format is cell-based. The conditions noted are these: Table 3, 5-HT1E; percent response of reference BRL 54443.

The target of assay [3] is human serotonin transporter (SERT) (Homo sapiens, UniProt P31645). Conditions: displacement of 3H-Imipramine.
Chain of human serotonin transporter (SERT) (P31645 whole entry): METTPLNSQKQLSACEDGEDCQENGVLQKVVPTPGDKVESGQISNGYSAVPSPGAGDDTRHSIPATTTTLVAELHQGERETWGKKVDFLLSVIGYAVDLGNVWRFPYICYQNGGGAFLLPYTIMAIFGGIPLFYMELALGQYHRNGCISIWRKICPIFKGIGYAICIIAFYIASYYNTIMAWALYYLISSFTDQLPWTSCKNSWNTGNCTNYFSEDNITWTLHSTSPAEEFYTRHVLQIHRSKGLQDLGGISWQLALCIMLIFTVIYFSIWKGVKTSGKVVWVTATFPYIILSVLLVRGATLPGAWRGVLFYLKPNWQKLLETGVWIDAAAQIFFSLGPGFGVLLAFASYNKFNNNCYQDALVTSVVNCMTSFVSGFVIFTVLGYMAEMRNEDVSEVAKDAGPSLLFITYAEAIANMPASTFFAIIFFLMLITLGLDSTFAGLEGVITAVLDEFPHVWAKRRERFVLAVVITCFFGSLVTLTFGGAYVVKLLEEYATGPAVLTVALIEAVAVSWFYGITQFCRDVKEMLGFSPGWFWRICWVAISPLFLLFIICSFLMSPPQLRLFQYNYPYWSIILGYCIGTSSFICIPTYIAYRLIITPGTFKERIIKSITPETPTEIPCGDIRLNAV
Method: Cells were not centrifuged following cell scraping, but were collected directly into the ice-cold nitrogen cavitation chamber.
Membranes were prepared as described above. […] Binding reactions were terminated by filtration through UniFilter-96GF/B filters (from Perkin-Elmer, presoaked with 0.1% polyethylenimine for 1 h) with a Brandel 96-well harvester. Filters were washed with ice-cold wash buffer (50 mM Tris, 120 mM NaCl, pH7.4; 500 ml/plate) and then allowed to air-dry for 30 min. 50 μl MacrosScint-20 scintillation cocktail was added to each well, the plates were sealed, and then counted on a Top-Count (Packard).
The target in assay [4] is T3, D2 receptors (Homo sapiens, UniProt P14416). Put plainly: R-SAT functional assay at D2. Also noted: expressed in transfected cells; host or cells: NIH-3T3. Conditions: for R-SAT Eff(%): percent response of reference ligand pergolide. The class given is cell-based.
T3 sequence (P14416 1-414 isoform P14416-2): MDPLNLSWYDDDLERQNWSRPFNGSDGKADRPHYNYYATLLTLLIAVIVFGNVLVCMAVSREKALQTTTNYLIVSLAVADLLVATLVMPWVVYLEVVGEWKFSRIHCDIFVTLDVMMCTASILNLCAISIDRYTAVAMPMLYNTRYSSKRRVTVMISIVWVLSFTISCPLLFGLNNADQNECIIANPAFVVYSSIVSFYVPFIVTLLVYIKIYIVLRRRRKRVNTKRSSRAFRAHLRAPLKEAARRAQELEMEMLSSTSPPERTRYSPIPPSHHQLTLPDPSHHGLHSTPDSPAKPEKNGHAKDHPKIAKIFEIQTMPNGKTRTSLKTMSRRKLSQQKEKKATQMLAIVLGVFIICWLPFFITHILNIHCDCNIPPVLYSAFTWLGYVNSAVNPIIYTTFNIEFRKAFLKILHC
Assay [5] deals with T4, human alpha1A receptor (Homo sapiens, UniProt P35348).
T4 construct: expressed in transfected cells; host or cells: NIH/3T3 cells, transient transfection, pSI vector
T4 sequence (P35348 1-466): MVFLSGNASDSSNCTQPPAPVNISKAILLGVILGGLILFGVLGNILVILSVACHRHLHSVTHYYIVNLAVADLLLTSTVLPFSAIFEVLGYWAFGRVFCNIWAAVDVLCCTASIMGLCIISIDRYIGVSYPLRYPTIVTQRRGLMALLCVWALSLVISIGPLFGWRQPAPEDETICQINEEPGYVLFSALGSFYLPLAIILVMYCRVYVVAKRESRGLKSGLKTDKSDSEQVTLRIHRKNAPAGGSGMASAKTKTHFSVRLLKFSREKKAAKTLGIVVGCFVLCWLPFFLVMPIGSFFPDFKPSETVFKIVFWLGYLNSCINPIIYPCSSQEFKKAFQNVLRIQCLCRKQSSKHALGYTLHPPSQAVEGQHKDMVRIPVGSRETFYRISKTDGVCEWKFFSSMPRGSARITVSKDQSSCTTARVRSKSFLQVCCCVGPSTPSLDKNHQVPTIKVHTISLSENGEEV
Put plainly: R-SAT assay α1A. The class given is cell-based. The conditions noted are these: Table 3, α1A; percent response of reference Phenylephrine.

Assay [6] addresses T5, human alpha1B receptor (Homo sapiens, UniProt P35368).
T5 construct: expressed in transfected cells; host or cells: NIH/3T3 cells, transient transfection, pSI vector
T5 sequence (P35368 1-520): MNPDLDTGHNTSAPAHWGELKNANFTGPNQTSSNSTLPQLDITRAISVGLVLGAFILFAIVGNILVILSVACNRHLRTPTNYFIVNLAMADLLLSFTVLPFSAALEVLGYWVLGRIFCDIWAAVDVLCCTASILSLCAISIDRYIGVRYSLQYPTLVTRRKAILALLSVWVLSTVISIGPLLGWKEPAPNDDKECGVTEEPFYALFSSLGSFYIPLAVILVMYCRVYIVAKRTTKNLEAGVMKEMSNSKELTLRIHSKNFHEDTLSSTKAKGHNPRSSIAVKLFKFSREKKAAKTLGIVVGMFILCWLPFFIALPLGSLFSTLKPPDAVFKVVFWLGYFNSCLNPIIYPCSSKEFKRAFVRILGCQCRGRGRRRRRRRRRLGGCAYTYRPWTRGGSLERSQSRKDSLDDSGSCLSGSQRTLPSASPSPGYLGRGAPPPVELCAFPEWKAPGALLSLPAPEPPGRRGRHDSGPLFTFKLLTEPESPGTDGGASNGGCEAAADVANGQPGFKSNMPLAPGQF
Put plainly: R-SAT assay α1B. The class given is cell-based. Conditions: Table 3, α1B; percent response of reference Phenylephrine.

The target of assay [7] is T6, human alpha2A receptor (Homo sapiens, UniProt P08913).
T6 construct: expressed in transfected cells; host or cells: NIH/3T3 cells, transient transfection, pSI vector
T6 sequence (P08913 whole entry): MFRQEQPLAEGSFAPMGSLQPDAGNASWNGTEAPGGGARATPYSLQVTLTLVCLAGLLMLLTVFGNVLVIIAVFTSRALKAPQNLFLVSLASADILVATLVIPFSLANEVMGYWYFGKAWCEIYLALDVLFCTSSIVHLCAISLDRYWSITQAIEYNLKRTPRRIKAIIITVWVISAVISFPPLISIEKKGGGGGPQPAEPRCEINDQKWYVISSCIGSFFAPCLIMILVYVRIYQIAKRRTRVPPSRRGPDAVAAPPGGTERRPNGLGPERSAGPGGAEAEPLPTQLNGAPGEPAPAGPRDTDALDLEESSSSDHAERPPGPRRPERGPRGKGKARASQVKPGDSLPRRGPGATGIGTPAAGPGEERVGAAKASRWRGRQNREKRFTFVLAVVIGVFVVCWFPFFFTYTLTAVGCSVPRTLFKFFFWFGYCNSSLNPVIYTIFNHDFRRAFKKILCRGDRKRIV
Put plainly: R-SAT assay α2A. The format is cell-based. The conditions noted are these: Table 3, α2A; percent response of reference UK 14,306.

Assay [8] deals with T7, human M1 receptor (Homo sapiens, UniProt P11229).
T7 construct: expressed in transfected cells; host or cells: NIH/3T3
T7 sequence (P11229 whole entry): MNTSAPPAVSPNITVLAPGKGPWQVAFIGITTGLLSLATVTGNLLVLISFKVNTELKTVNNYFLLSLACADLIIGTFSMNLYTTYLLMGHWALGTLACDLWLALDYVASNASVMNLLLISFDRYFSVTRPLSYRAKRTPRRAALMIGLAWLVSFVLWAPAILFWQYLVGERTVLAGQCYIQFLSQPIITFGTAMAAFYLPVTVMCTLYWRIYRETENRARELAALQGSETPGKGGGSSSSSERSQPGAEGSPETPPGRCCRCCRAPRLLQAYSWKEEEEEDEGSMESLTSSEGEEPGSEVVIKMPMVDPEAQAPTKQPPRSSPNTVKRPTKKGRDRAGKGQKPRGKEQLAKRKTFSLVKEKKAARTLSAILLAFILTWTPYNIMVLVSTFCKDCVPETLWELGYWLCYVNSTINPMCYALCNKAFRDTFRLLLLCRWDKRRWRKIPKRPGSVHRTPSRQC
Put plainly: R-SAT assay M1. The class given is cell-based. The conditions noted are these: Table 3, M1; percent response of reference Carbachol.

In assay [9] the target is dopamine D2/D3 receptors. The conditions noted are these: read-out: Ki, affinity for dopamine D2/D3 receptors; in vitro binding studies, background; cited from earlier work.
Assay [10] deals with T8, human D1 receptor (Homo sapiens, UniProt P21728).
T8 construct: expressed in transfected cells; host or cells: NIH-3T3 (inferred: R-SAT host; D1 is in neither method list of b200)
T8 sequence (P21728 whole entry): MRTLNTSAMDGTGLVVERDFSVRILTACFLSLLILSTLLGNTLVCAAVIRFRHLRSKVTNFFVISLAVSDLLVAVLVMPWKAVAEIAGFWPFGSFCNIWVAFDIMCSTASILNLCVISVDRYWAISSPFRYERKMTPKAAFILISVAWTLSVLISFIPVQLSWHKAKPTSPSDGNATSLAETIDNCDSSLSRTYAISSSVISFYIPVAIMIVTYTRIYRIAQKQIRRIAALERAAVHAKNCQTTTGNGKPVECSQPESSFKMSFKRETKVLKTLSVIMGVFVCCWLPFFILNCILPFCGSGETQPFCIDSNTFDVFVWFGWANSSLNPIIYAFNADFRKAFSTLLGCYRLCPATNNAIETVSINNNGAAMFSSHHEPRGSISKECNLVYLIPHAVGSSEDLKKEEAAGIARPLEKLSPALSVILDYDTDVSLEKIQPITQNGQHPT
Briefly: R-SAT assay D1. The format is cell-based. Conditions: Table 3, D1; percent response of reference SKF 38393.

Assay [11] deals with T3, D2 receptors. Briefly: Dissociation rate of dopamine from D2 receptors (off-rate assay). The class given is binding. Conditions: data not shown.
Assay [12] has as its target T3, D2 receptors. Briefly: BRET2 functional antagonism of dopamine at D2 (Schild analysis). The class given is cell-based. Also noted: expressed in transfected cells; host or cells: HEK-293T.
Method: BRET-2 signals were measured using the multiplate reader Mithras 940LB (Berthold Technologies, Bad Wildbad, Germany) and were calculated as the ratio between the Renilla luciferase emission and the GFP2 emission corrected by the background emissions of non-transfected cells.
A Schild plot (B) was constructed using the EC50 values derived from the curves in (A). The Schild plot was fitted using linear regression in GraphPad Prizm.
The target of assay [13] is T9, human D5 receptor (Homo sapiens, UniProt P21918).
T9 construct: expressed in transfected cells; host or cells: NIH-3T3 (inferred: R-SAT host; D5 is in neither method list of b200)
T9 sequence (P21918 whole entry): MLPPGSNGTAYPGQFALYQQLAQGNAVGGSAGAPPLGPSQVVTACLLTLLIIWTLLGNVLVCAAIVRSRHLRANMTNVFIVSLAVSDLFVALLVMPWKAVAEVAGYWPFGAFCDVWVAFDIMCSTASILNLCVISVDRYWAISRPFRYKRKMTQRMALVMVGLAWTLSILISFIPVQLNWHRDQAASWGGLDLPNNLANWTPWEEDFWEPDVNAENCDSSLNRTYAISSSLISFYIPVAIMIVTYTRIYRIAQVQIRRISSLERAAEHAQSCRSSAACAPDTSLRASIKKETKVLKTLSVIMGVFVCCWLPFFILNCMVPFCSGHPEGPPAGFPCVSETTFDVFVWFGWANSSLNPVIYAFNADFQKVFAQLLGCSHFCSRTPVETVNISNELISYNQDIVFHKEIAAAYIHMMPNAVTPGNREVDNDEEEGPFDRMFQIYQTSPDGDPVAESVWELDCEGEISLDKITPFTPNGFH
Put plainly: R-SAT assay D5. The format is cell-based. Conditions: Table 3, D5; percent response of reference SKF 38393.

Assay [14] has as its target human D4 (variant 4.2) receptor (Homo sapiens, UniProt P21917, DEL265-296). The format is cell-based.

Where two headings read alike, the source gives them in different places.

Chain of human D4 (variant 4.2) receptor (P21917 with tags, fused parts or gaps DEL265-296): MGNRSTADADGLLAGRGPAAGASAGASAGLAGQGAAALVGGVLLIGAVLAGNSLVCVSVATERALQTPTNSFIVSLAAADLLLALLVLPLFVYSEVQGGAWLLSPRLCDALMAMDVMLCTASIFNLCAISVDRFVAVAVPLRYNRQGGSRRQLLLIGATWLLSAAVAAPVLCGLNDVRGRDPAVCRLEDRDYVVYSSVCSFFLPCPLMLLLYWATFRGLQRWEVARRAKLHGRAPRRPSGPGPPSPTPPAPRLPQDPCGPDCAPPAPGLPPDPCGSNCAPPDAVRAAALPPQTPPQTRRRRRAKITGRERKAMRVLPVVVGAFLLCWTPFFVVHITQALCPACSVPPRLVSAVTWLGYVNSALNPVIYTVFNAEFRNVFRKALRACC

Consider `CCCN1CCC[C@H](c2cccc(S(C)(=O)=O)c2)C1` [(+)-OSU6162, (3R)-3-[3-(methylsulfonyl)phenyl]-1-propylpiperidine], for which the EC50 in [1] is 31600 nM. For the same molecule, the “Eff (%)” value is listed as 84% in assay [1]; 5% in assay [2]; 22% in assay [5]; 10% in assay [6]; 5% in [7]; 11% in assay [8]. Also, the Inh % in assay [3] is given as 38%. In addition, the Emax at 50 µM in assay [4] (read-out: Eff (%), response at 50 μM) turned out to be 77%; in assay [4] (read-out: R-SAT Eff(%), response at 50 μM) it was 77%.

On to `CCCN1CCC[C@@H](c2cccc(S(C)(=O)=O)c2)C1` [(−)-OSU6162, (3S)-3-[3-(methylsulfonyl)phenyl]-1-propylpiperidine], for which the EC50 in [1] is 7940 nM; in assay [4] (Table 2, negative logarithm of EC50 in molar, NIH3T3 cells, mean ± SEM, read-out: R-SAT pEC50 (converted)), 794 nM; in [4] (Table 3, D2, negative logarithm of EC50 in molar, read-out: pEC50 (converted)) it was 794 nM. Moreover, the “Eff (%)” value in assay [1] is given as 68%; in assay [2], 5%; in assay [10] it was 11%; in assay [4] (Table 3, D2, percent response of reference Pergolide) it was 36%; in assay [5], 15%; in [6] it was −1%. Besides, the “Eff (%)” value in assay [7] was found to be 2%; in assay [13], 10%; in [8], 5%; in assay [14], 40%. In [9], the Ki was 447 nM. Further, the Inh % in assay [3] was found to be 26%. Also, in assay [11], the “effect on dissociation rate of dopamine from D2 receptors” value is “did not significantly alter”. Further, the “R-SAT pEC50” value in [4] (Table 2, negative logarithm of EC50 in molar, NIH3T3 cells, mean ± SEM) stood at 6.1 ± 0.3. In addition, the “R-SAT Eff(%)” value in assay [4] (Table 2, mean ± SEM) is on record as 30%; in assay [4] (Table 2, mean ± SEM, listed as (−)-OSU-6162), 36 ± 3%. Further, the “slope of the Schild analysis” value in [12] (functional antagonism of dopamine in BRET2 assays) is on record as “nearly unity”. The Kb in assay [12] (read-out: pKb from the Schild analysis (converted)) is 1260 nM.
